Assays:
ABCB1/Pgp = target: T1, ABCB1/Pgp (Homo sapiens, UniProt P08183); test: ABCB1-ATPase activity in Sf9 membrane vesicles; format: biochemical
T1 construct: made in house; host or cells: Sf9 insect cells
Description: ABC transporter ATPase activity was measured in Sf9 membrane vesicles containing the respective human ABC transporters. For ABCG2/BCRP, the cholesterol level in the vesicles was increased to the level of mammalian cell membranes for full activity. For ABCB1/Pgp 20 μg/150 μL and for ABCG2/BCRP 10 μg/150 μL, vesicles were incubated with 3 mM Mg-ATP for 25 min at 37 °C. The test drugs were dissolved in DMSO and 1 µL was added to the samples. The ABC transporter-related ATPase activity was determined and reference activators (50 µM verapamil for ABCB1 and 5 µM quercetin for ABCG2) served as controls.
Drug-stimulated ATPase activity of the ABCB1 transporter is a well-documented functional assay employed to estimate the substrate or inhibitory features of various drugs. […] In this assay, most transported substrates show a biphasic curve: Low concentrations stimulate, while higher concentrations inhibit, the ATPase activity. In these experiments, we measured the vanadate-sensitive (ABC transporter-related) ABCB1-ATPase activity in membrane vesicles isolated from ABCB1 overexpressing Sf9 cells.

wild-type ABCG2 = target: T2, wild-type ABCG2 (Homo sapiens, UniProt Q9UNQ0); test: Hoechst 33342 dye extrusion in HeLa cells expressing wild-type ABCG2; format: cell-based; conditions: wild-type ABCG2, 0.2 µM Hoechst 33342, full inhibition by 1 µM Ko143
T2 construct: expressed in transfected cells; host or cells: HeLa (Sleeping Beauty transposon system)
T2 sequence (Q9UNQ0 1-655): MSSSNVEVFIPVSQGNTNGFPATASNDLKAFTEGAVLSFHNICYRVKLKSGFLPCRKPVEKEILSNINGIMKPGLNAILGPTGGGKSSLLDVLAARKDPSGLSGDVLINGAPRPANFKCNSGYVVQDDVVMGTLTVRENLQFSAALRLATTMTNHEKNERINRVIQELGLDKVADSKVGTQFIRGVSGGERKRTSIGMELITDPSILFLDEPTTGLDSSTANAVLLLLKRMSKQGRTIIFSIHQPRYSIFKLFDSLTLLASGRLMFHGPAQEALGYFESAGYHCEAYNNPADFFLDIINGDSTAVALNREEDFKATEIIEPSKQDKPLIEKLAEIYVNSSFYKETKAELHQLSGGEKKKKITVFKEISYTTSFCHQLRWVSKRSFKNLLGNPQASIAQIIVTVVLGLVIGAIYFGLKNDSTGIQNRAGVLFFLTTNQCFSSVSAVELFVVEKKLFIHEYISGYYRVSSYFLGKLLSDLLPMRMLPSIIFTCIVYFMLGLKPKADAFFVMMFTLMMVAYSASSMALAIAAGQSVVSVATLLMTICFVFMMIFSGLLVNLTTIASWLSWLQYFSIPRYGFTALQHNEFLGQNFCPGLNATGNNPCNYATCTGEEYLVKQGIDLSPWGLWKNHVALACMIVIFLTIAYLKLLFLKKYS

T1 sequence (P08183 whole entry): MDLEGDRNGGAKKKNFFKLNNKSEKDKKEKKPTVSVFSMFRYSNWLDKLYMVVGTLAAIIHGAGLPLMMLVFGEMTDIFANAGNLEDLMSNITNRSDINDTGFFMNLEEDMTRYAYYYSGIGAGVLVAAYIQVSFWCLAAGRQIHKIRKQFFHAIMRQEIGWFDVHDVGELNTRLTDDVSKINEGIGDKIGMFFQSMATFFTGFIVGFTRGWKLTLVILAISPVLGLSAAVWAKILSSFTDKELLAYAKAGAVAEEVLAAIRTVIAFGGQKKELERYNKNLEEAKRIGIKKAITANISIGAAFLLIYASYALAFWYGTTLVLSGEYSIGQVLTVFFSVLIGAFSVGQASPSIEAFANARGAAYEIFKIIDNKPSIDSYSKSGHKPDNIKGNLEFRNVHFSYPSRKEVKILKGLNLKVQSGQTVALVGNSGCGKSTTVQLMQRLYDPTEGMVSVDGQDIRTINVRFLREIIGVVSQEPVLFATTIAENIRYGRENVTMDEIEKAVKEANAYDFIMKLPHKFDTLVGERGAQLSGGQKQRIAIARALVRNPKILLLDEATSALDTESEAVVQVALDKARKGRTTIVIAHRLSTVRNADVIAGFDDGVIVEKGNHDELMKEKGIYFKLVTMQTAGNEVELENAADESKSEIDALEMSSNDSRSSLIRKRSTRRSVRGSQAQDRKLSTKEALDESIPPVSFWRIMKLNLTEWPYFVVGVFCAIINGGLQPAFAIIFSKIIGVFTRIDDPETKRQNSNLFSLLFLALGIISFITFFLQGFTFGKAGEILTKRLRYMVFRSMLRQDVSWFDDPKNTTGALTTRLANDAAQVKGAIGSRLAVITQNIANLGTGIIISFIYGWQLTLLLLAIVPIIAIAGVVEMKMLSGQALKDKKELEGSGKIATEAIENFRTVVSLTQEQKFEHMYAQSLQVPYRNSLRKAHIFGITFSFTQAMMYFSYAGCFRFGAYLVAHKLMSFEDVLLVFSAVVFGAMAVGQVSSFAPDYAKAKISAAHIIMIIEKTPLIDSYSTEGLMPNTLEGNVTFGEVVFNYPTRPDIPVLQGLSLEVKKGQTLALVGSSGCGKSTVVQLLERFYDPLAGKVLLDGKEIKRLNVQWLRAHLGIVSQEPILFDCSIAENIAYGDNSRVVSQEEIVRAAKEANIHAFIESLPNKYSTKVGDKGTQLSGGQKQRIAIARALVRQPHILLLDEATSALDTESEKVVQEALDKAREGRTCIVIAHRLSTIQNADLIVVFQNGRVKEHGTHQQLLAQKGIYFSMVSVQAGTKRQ

**Q.** For CCC(CC)COC(=O)[C@H](C)N[P@](=O)(OC[C@H]1O[C@@](C#N)(c2ccc3c(N)ncnn23)[C@H](O)[C@@H]1O)Oc1ccccc1 [remdesivir], which EC50 (ABCB1/Pgp) is on record?
**A.** ~10 µM

**Q.** And the “Concentration at which ABCB1-ATPase activity was increased” value (ABCB1/Pgp; Sf9/ABCB1 membranes)?
**A.** 10 to 50 µM

**Q.** And the “Effect on ABCB1-ATPase activity (in words)” value (ABCB1/Pgp; Sf9/ABCB1 membranes, 50 µM verapamil as reference activator)?
**A.** significant ABCB1-ATPase stimulation

**Q.** What about the “Effect on Hst dye extrusion by ABCG2 in HeLa cells (in words)” value (wild-type ABCG2) of the same molecule?
**A.** slight effect at relatively high concentrations

— article PMC7827085 (Pharmaceutics, 2021)
